Experimental findings from paper PMC3048735 (The Journal of Biological Chemistry, 2011) are described below.

This assay has as its target T1, TryP (TbTryP) (Trypanosoma brucei, UniProt Q71RY2).
T1 sequence (Q71RY2 1-199): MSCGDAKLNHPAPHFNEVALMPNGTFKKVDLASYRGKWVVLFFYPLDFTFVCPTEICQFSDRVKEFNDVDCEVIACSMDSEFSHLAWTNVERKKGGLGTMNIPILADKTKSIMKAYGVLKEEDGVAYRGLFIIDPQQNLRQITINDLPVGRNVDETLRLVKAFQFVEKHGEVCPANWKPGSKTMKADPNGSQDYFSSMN
The assay is described as follows: TryP-limited coupled peroxidase assay, NADPH consumption at […] nm. Type of assay: biochemical.

Each structure is given as a SMILES string.

As usually defined, the IC50 is the concentration at which inhibition is half-maximal. With `O=C1C=CC(O)(c2nc3ccccc3s2)C=C1` [compound 1, PMX464], the midpoint of inhibition, the IC50, lay at 14.1 ± 0.8 µM.
